From ChEMBL document CHEMBL1157605, “Hybrid molecules from xanomeline and tacrine: enhanced tacrine actions on cholinesterases and muscarinic M1 receptors” (J Med Chem, 2010)
The source made the active and inactive calls. The rule behind the calls is not given here.

What was measured:
[1] = target: Acetylcholinesterase (Electrophorus electricus, UniProt O42275)
Description: Inhibition of electric eel AChE by Ellman's method

[2] = target: Cholinesterase (Equus caballus, UniProt P81908)
Description: Inhibition of BChE from equine serum by Ellman's method

[3] = system: Rattus norvegicus; assay: Antiamnesic activity in Wistar rat assessed as increase in total exploration time at 2 umol/100 g body weight, ip by eight-arm radial maze cognition test; format: functional, organism-based
[4] = system: Rattus norvegicus; assay: Antiamnesic activity against scopolamine-induced memory loss in Wistar rat assessed as increase in total exploration time at 2 umol/100 g body weight, ip by eight-arm radial maze cognition test; format: functional, organism-based
[5] = target: T1, Muscarinic acetylcholine receptor M1 (Homo sapiens) (UniProt P11229); conditions: CHO
T1 sequence (whole entry): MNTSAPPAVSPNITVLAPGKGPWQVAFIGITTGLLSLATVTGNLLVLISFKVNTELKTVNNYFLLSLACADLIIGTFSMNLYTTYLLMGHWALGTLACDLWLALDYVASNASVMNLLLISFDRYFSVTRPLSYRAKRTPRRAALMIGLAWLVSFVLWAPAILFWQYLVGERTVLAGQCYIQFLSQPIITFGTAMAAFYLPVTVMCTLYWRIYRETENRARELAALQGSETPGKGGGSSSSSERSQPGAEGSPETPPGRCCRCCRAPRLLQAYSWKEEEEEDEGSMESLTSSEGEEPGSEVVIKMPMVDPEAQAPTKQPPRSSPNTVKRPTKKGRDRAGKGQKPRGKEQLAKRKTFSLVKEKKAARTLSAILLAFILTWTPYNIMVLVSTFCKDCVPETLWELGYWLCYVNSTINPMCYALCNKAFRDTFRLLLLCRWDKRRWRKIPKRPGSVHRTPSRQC
Description: Displacement of [3H]NMS from human muscarinic M1 receptor expressed in CHO cells in ternary complex by EATCM analysis

[6] = target: T1, Muscarinic acetylcholine receptor M1 (Homo sapiens); conditions: CHO; remark: listed apart in the source
Description: Displacement of [3H]NMS from human muscarinic M1 receptor expressed in CHO cells in binary complex by EATCM analysis

Acetylcholinesterase, sequence (O42275 whole entry): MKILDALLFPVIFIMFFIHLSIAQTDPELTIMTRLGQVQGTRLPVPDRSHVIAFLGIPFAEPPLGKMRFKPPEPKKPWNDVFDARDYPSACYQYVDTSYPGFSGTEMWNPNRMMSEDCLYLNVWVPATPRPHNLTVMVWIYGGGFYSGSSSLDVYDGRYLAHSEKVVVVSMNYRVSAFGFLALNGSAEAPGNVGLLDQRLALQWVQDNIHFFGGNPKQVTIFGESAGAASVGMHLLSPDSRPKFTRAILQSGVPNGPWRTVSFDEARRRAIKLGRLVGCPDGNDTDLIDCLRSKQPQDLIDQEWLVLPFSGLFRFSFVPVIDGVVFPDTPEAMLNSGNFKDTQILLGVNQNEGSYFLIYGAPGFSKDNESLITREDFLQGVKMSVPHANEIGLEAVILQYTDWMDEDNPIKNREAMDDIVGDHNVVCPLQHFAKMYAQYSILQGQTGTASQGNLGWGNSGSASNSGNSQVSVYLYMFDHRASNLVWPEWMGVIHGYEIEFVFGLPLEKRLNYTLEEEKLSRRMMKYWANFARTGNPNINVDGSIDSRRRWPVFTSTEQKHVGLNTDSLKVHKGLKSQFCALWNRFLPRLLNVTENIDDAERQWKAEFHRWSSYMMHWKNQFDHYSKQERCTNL
Cholinesterase, sequence (P81908 whole entry): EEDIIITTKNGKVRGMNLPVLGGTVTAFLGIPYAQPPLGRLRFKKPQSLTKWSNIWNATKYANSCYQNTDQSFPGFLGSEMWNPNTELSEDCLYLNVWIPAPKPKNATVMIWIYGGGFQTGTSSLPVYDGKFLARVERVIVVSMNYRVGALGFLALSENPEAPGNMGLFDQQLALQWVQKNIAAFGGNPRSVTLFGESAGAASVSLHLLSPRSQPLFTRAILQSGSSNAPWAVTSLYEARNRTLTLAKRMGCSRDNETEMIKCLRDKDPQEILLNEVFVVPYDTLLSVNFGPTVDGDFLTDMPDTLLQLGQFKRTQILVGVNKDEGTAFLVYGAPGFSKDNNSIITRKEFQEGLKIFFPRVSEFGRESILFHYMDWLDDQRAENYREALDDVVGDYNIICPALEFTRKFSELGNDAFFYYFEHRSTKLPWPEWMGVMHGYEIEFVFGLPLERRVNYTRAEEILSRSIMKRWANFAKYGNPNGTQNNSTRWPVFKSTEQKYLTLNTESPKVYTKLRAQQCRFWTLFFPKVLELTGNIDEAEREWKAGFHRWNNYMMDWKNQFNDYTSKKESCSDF

SMILES | IC50 [1] | IC50 [2] | Activity [3] | Activity [4] | logKd [5] | logKd [6]
CN1CCC=C(c2nsnc2OCCCOCCCCC(=O)NCCCCNc2c3c(nc4ccccc24)CCCC3)C1 | 8.71 nM | 5.89 nM | – | – | – | –
CN1CCC=C(c2nsnc2OCCCOCC(=O)NCCCCNc2c3c(nc4ccccc24)CCCC3)C1 | 12 nM | 10.7 nM | – | – | – | –
CN1CCC=C(c2nsnc2OCCCOCC(=O)NCCCCCCCCNc2c3c(nc4ccccc24)CCCC3)C1 | 6.61 nM | 5.13 nM | Active | Active | 6.35 | 6.88
CN1CCC=C(c2nsnc2OCCCOCCCCC(=O)NCCCNc2c3c(nc4ccccc24)CCCC3)C1 | 10.2 nM | 8.91 nM | – | – | – | –
CCCCCCOc1nsnc1C1=CCCN(C)C1 | – | – | – | – | 4.94 | 7.4
CN1CCC=C(c2nsnc2OCCCCNCCCCCCCCNc2c3c(nc4ccccc24)CCCC3)C1 | 26.3 nM | 13.5 nM | – | – | – | –
CN1CCC=C(c2nsnc2OCCCOCCC(=O)NCCCCNc2c3c(nc4ccccc24)CCCC3)C1 | 10.7 nM | 9.12 nM | – | – | – | –
CN1CCC=C(c2nsnc2OCCCOCCC(=O)NCCCCCCCCNc2c3c(nc4ccccc24)CCCC3)C1 | 22.9 nM | 13.2 nM | – | – | 6.7 | 7.57
CN1CCC=C(c2nsnc2OCCCOCCCC(=O)NCCCCCCCCNc2c3c(nc4ccccc24)CCCC3)C1 | 6.46 nM | 5.01 nM | – | – | 7.06 | 7.38
CN1CCC=C(c2nsnc2OCCCOCCCC(=O)NCCCCNc2c3c(nc4ccccc24)CCCC3)C1 | – | 6.76 nM | – | – | – | –
CN1CCC=C(c2nsnc2OCCCOCCC(=O)NCCCNc2c3c(nc4ccccc24)CCCC3)C1 | 13.5 nM | 10.7 nM | – | – | 8.03 | 8.09
CN1CCC=C(c2nsnc2OCCCOCCCCC(=O)NCCCCCCCCNc2c3c(nc4ccccc24)CCCC3)C1 | 6.17 nM | 5.89 nM | – | – | – | –
CN1CCC=C(c2nsnc2OCCCCNCCCCNc2c3c(nc4ccccc24)CCCC3)C1 | 43.7 nM | 16.2 nM | – | – | 7.49 | 8.13
CN1CCC=C(c2nsnc2OCCCOCCCC(=O)NCCCNc2c3c(nc4ccccc24)CCCC3)C1 | 10.7 nM | 10 nM | – | – | – | –
CN1CCC=C(c2nsnc2OCCCOCC(=O)NCCCNc2c3c(nc4ccccc24)CCCC3)C1 | 14.8 nM | 9.77 nM | – | – | 7.87 | 8.1
CN1CCC=C(c2nsnc2OCCCCNCCCNc2c3c(nc4ccccc24)CCCC3)C1 | 63.1 nM | 28.8 nM | – | – | – | –
CN1CCC=C(c2nsnc2OCCCCNCCCCCNc2c3c(nc4ccccc24)CCCC3)C1 | 21.9 nM | 12.3 nM | – | – | – | –
